Laboratory results: patent US5411983A, “Certain hyrdoxy-phosphinyl-oxy-phenylmethyl-imidazolium hydroxide inner salts as PAF antagonists” (American Cyanamid Company, priority 1993, dated 1995)
Counter-ions that a name gives are not always drawn.

What was measured:
PAF receptor [1] = target: T1, PAF receptor (Oryctolagus cuniculus, UniProt G1TEI7); assay: Inhibition of PAF induced platelet aggregation in rabbit platelet rich plasma (PRP); assay type: cell-based, rabbit (male New Zealand White); design: immediately centrifuged at 800 rpm for 10 minutes at room temperature to recover the platelet rich plasma (PRP); endogenous in cells; host or cells: rabbit platelets in platelet rich plasma (male New Zealand White rabbits); conditions: for IC50: rabbit platelet rich plasma
Protocol: (§1) Platelet activating factor (PAF) compounds were evaluated as PAF receptor antagonists in vitro by measuring inhibition of PAF induced platelet aggregation. Platelet aggregation was measured by a modification of the method of A. Wissner, et. al., J. Med. Chem., 27, 1174, 1984.
(§2) Approximately 120-240 ml of blood were collected by cardiac puncture from unanesthetized male New Zealand White rabbits (Whaley's Summit View Farms, Belvedere, N.J.) with the use of 3.2% sodium citrate anticoagulant (1 part of citrate/10 parts of blood). All syringes and pipets were plastic. The blood was gently mixed and immediately centrifuged at 800 rpm for 10 minutes at room temperature to recover the platelet rich plasma (PRP). Platelet poor plasma (PPP) was prepared by centrifuging PRP at 2800 rpm for 10 minutes at room temperature.
(§3) Dilutions (1:3000) Of PRP in Isoton diluent were made and platelet counts were determined on a Coulter Thrombocounter which was standardized with platelet reference standards (Interscience Platelet Control, Portland, Oreg.). PRP platelet counts were adjusted to 500,000 platelets/μl by the addition of PPP.
(§4) L-PAF was obtained from Calbiochem. A stock solution of 1-2 E-3M was prepared in 10% ethanol in water and serial working dilutions were made using phosphate buffered saline (PBS). 1-2 E-3M stock solutions of test compounds were prepared in 100% methanol and serially diluted in PBS. All solutions were made up in plastic tubes, stored on ice and protected from heat and light. Solutions were prepared fresh or frozen at -20° C. and used within 48 hours.
(§5) Incubation mixtures consisted of 400 μl PRP, 50 μl of PBS diluent or test compound and 50 μl of PAF agonist. More specifically, 400 μl of PRP was stabilized in a cuvette for 1-2 minutes at 37° C. in the aggregometer to achieve a stable baseline, then 50 μl of PBS or test compound, was added and incubated for 5 minutes before addition of the challenge concentration of PAF ([…], as determined from the dose response curve for PAF for that experiment). Aggregation was monitored for 5 minutes. Samples containing test compound or diluent were run simultaneously for comparison. Test compounds were initially evaluated at a screening concentration of 1E-5M. Those producing ≥ 50% inhibition of the magnitude of aggregation were then reevaluated in a dose response fashion (final concentrations 1E-7M to 5E-5M) and IC50 values were determined. Ki values were also calculated in some cases from [formula] where Ki =inhibitory constant
(§6) IC50 =molar concentration of test compound which gives 50% inhibition
(§7) [PAF]=molar concentration of PAF used as challenges
(§8) EC50 =molar concentration of PAF which gives 50% of maximal aggregation.
(§9) The recording equipment consisted of single or dual channel Chronolog aggregometers connected to dual channel 10 MV full scale deflection Omniscribe chart recorders (Houston Instruments). […] The bead suspension was used to set the 0% light transmission mark and clear water was used to set the 100% light transmission mark. These limits defined a full scale deflection. The aggregation traces were analyzed by a digitizing method (C. Kohler and B. Zoltan, J. Pharm. Methods, 12, 113, 1984) with x, y coordinate data stored in a computer file. A suitable program computed parameters of interest such as the magnitude of aggregation.

[2] = test system: PAF induced vascular permeability change in guinea pig skin
Text: Platelet Activating Factor (PAF) given intradermally, increases capillary permeability, and plasma proteins (e.g albumin) leak from the vascular space into the interstitial fluids of the skin. If the albumin has been previously stained with Evans' blue dye, the lesion area can be visualized as a blue spot in the .skin. A specific PAF antagonist inhibits the development of increased capillary permeability caused by PAF and reduces the leakage of proteins into the skin. Test compounds were evaluated for non-specific effects by monitoring their ability to inhibit or reduce a histamine induced increase in capillary permeability.
Test Solutions were prepared as follows: Evans' Blue Dye (Sigma E2129) was dissolved in saline to yield a 0.1% w/v solution. A 2 mg/ml stock chloroform solution of PAF (1-phosphotidyl, acetyl-O-alkyl; Sigma P9525) was diluted in saline to give final concentrations of 500 and 250 ng/ml. Saline dilutions were made fresh for each test. Histamine diphosphate solutions (Sigma H7375) were prepared by dissolving 10 mg in 100 ml of saline and diluting to 20 μg/ml with saline. Test compounds were dissolved in ethanol at 10 mg/ml and stored at -70° C. Injection mixtures were made by placing 10 μl of test compound solution into 1.0 ml of either the PAF solutions or the histamine solution.
The animals used were Hartley strain guinea pigs weighing 250-350 g, maintained with food and water ad libitum. The animals were shaved on their back and hind feet one day before use.
Each guinea pig was given an intravenous injection of 2 ml of Evans' blue dye solution into a foot vein. Immediately after, a series of six intradermal injections of 0.1 ml each were given, three on each side of the animal. They were: PAF 50 ng (0.1 ml of a 500 ng/ml solution); PAF 25 ng; and histamine diphosphate 2 μg. The left side injections contain 10 μg of test compound while the right side contain an equivalent amount of the ethanol vehicle to serve as a control.
Thirty minutes later the animals were killed by cervical dislocation and the skin reflected from the back. The lesion areas were approximated as the product of the largest diameter and normal diameter both in mm.

PAF induced lethality = PAF induced lethality in the mouse; assay type: in vivo, mouse (ICR); conditions: ip, 1 h, mice, test compound i.p. 1/2 hour before PAF i.v., dose that protects 1/2 the animals, read-out: PAF induced Lethality PD50 (mg/kg I.P., 1/2 hour)
Protocol: PAF Induced Lethality in the Mouse
Test compounds were evaluated for their ability to prevent death induced by an intravenous injection of a lethal dose of PAF.
ICR mice were given test compounds intraperitoneally as described under Inhibition of PAF Induced Vascular Permeability Change in Mouse Skin, 1/2 hour before an intravenous dose of 100 μg/kg PAF in saline. One hour later the number of dead mice were recorded. Protection was expressed as percent survivors in treated group/percent survivors in control group.

PAF receptor [3] = target: T1, PAF receptor; assay: Inhibition of PAF induced platelet aggregation in washed rabbit platelets; assay type: cell-based; design: In some experiments, washed platelets were used instead of PRP; endogenous in cells; host or cells: washed rabbit platelets; conditions: for Ki: calculated from IC50, [PAF] and EC50; for IC50: challenge concentration of PAF 5E9M [sic]
Protocol: as §1, §2, §3, §4, §5, §6, §7, §8, §9
In some experiments, washed platelets were used instead of PRP. Washed platelet suspensions were prepared as follows. PRP was centrifuged at 2800 rpm for 10 minutes to obtain PPP and a platelet pellet. The pellet was gently suspended and washed in calcium free, albumin free Tyrode's buffer, pH 6.3. The suspension was recentrifuged and the washed pellet was resuspended in normal Tyrodes', buffer (with calcium, but albumin free), pH 7.4. Platelet counts were adjusted to 500,00 platelets/μl.

[4] = test system: PAF induced vascular permeability change in mouse skin; assay: Inhibition of PAF induced vascular permeability change in mouse skin; assay type: in vivo, mouse (Hilltop ICR); conditions: ip, 0.5 h, test compound i.p., PAF i.d., read-out: Inhibition of Vascular Permeability Lesion (ED50 mg/kg)
Protocol: Inhibition of PAF Induced Vascular Permeability Change in Mouse Skin
The rationale for this test is similar to the coinjection test in guinea pigs; however, the test compound was given intraperitoneally rather than coinjected.
Test solutions were prepared as follows: An 80 μg portion of PAF was dissolved in 40 ml of saline to yield a concentration of 2000 ng/ml. A 10 mg portion of histamine diphosphate was dissolved in 100 ml of saline to yield a concentration 100 μg/ml. Test compounds were dissolved in saline and given intraperitoneally (20 mg/kg) 1/2 hour before intradermal challenge with PAF or histamine.
The animals used were Hilltop ICR mice, shaved on their flanks one day before use. The mice were randomly assigned to treated and control groups and were given test compound or saline 1/2 hour before challenge. Each mouse was injected via a tail vein with 0.25 ml of 0.05% Evans' blue dye immediately before the PAF or histamine intradermal injections were made (0.05 ml each), one per side.
Thirty minutes later the animals were killed and the lesions areas measured as described above. Lesion areas in treated animals were expressed as a percent of the control lesions and an ED50 (mg/kg) was calculated from an arcsine area vs. log dose transform.

[5] = IC50 (M) PRP, inhibition of PAF-induced platelet aggregation, PAF challenge 1E-6M
[6] = IC50 (M) PRP, inhibition of PAF-induced platelet aggregation, PAF challenge 1E-7M
[7] = IC50 (M) PRP, inhibition of PAF-induced platelet aggregation, PAF challenge 5E-8M
[8] = PAF challenge 5E-8M, read-out: IC50 (M) PRP, inhibition of PAF-induced platelet aggregation

T1 sequence (G1TEI7 1-342): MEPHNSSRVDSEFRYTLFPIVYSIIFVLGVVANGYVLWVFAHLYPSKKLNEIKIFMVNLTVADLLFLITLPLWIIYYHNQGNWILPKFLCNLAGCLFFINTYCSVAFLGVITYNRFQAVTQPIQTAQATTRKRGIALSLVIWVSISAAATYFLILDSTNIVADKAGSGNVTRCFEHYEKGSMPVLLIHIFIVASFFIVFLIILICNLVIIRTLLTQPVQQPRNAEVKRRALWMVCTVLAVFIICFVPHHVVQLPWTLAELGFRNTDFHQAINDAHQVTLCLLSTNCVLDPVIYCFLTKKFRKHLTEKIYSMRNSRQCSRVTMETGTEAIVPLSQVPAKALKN

Row | Structure (SMILES) | Ki (PAF receptor [1]) [nM] | IC50 (PAF receptor [1]; [5]) [M] | IC50 (PAF receptor [1]; [6]) [M] | IC50 (PAF receptor [1]; [7]) [M] | Inhibition of Vascular Permeability Lesion (% of Control) [2] | ED50 (PAF induced lethality) [mg/kg] | Ki (PAF receptor [3]) [nM] | IC50 (PAF receptor [3]) [nM] | ED50 [4] [mg/kg] | IC50 (PAF receptor [1]; [8]) [M]
1 | CCCCCCCCCCCCCCCCCCNC(=O)OCC(COP(=O)([O-])Oc1ccccc1C[n+]1ccsc1)OC (stereo not shown) [3-[[2-[(1-Hydroxy-4-methoxy-7-oxo-2,6-dioxa-8-aza-1-phosphahexacosyl)oxy]phenyl]methyl]thiazolium, hydroxide, inner salt, P-oxide] | 310 | 2.5e-05 | 1.4e-06 | 5.6e-07 | 25 % of Control | < 2.5 | 7.2 | 52 | 5 | 
2 | CCCCCCCCCCCCCCCCCCNC(=O)OCC(COP(=O)([O-])Oc1cccc(C[n+]2ccsc2)c1)OC (stereo not shown) [3-[[3-[(1-Hydroxy-4-methoxy-7-oxo-2,6-dioxa-8-aza-1-phosphahexacosyl)oxy]phenyl]methyl]thiazolium, hydroxide, inner salt P-oxide] |  |  |  |  | 61.8 % of Control |  |  |  | 6.2 | 
3 | CCCCCCCCCCCCCCCCOCC(COP(=O)([O-])Oc1cccc(C[n+]2ccsc2)c1)OC (stereo not shown) [3-[[3-[[[3-(Hexadecyloxy)-2-methoxypropoxy]hydroxyphosphinyl]oxy]phenyl]methyl]thiazolium, hydroxide, inner salt] | 490 | 4.7e-05 | 1e-06 | 9.9e-07 | 25 % of Control | < 1.25 | 8 | 17 | 5.6 | 
4 | CCCCCCCCCCCCCCCCOCC(COCc1cccc(Cn2cc[n+](C)c2)c1)OC (stereo not shown) [1-[[3-[[3-(Hexadecyloxy)-2-methoxypropoxy]methyl]phenyl]methyl]-3-methyl-1H-imidazolium, iodide] |  |  |  |  |  |  |  | 1500 |  | 3.4e-06
5 | CCCCCCCCCCCCOc1cccc(OCC(COP(=O)([O-])Oc2cccc(C[n+]3ccsc3)c2)OC)c1C (stereo not shown) [3-[[3-[[[3-[3-(Dodecyloxy)-2-methylphenoxy]-2-methoxypropoxy]hydroxyphosphinyl]oxy]phenyl]methyl]thiazolium, hydroxide, inner salt] | 510 | 2.4e-05 | 1.9e-06 | 2.3e-06 | 20.4 % of Control | < 1.25 |  |  | 8.2 | 
6 | COC(COc1ccc(OCc2ccccc2)cc1)COP(=O)([O-])Oc1cccc(C[n+]2ccsc2)c1 (stereo not shown) [3-[[3-[[Hydroxy-2-methoxy-3-[4-(phenylmethoxy)phenoxy]propoxy]phosphinyl]oxy]phenyl]methyl]thiazolium, hydroxide, inner salt] |  |  |  | 3.3e-05 | 67 % of Control | < 25 |  |  | 20 | 
7 | CCCCCCCCCCCCOc1cccc(OCC(COP(=O)([O-])Oc2cccc(C[n+]3csc(C)c3)c2)OC)c1C (stereo not shown) [3-[[3-[[[3-[3-(Dodecyloxy]-2-methylphenoxy]-2-methoxypropoxy]hydroxyphosphinyl]oxy]phenyl]methyl]-5-methylthiazolium, hydroxide, inner salt] |  | 3e-05 | 2e-06 | 9.3e-07 |  |  |  |  |  | 
8 | CCCCCCCCCCCCCCCCOCC(COC(=O)c1cccc(C[n+]2ccccn2)c1)OC (stereo not shown) [1-[[3-[[3-(Hexadecyloxy)-2-methoxypropoxy]carbonyl]phenyl]methyl]pyridazinium, bromide] |  |  |  |  |  |  |  |  |  | 1.1e-05
9 | CCCCCCCCCCCCOc1cccc(OCC(COP(=O)([O-])Oc2cccc(C[N+](C)(C)C)c2)OC)c1C (stereo not shown) [3-[[[3-[3-(Dodecyloxy)-2-methylphenoxy]-2-methoxypropoxy]hydroxyphosphinyl]oxy]-N,N,N-trimethylbenzenemethanaminum, hydroxide, inner salt] |  |  |  | 6e-06 |  |  |  |  |  | 
10 | CCCCCCCCCCCCOc1cccc(OCC(COP(=O)([O-])Oc2cccc(C[n+]3csc(CCO)c3C)c2)OC)c1C (stereo not shown) [3-[[3-[[[3-[3-(Dodecyloxy)-2-methyl-phenoxy]-2-methoxypropoxy]hydroxyphosphinyl]oxy]phenyl]methyl)-5-(2-hydroxyetbyl)-4-methylthiazolium, hydroxide, inner salt] |  |  |  | 1.7e-05 |  |  |  |  |  | 
11 | CCCCCCCCCCCCCCc1cccc(OCC(COP(=O)([O-])Oc2cccc(C[n+]3ccsc3)c2)OC)c1 (stereo not shown) [[[3-[[3-[[Hydroxy[2-methoxy-3-(3-tetradecylphenoxy)propoxy]phosphinyl]oxy]phenyl]methyl]thiazolium, hydroxide, inner salt] | 210 | 4e-06 | 9.5e-07 | 8.1e-07 | 3.8 % of Control | < 1.25 | 1.4 | 9.5 | 5.3 | 
12 | CCCCCCCCCCCCCCCCCCOP(=O)([O-])Oc1cccc(C[n+]2ccsc2)c1 [3-[[3-[[Hydroxy(octadecyloxy)phosphinyl]oxy]phenyl]methyl]thiazolium, hydrozide, inner salt] |  |  |  | 2.2e-05 |  |  |  |  |  | 
13 | CCCCCCCCCCCCCCCCOCC(COP(=O)([O-])Oc1cccc(C[n+]2csc(C)c2)c1)OC (stereo not shown) [3-[[3-[[[3-(Hexadecyloxy)-2-methoxypropoxy]hydroxyphosphinyl]oxy]phenyl]methyl]-5-methylthiazolium, hydroxide, inner salt] | 210 | 1.2e-05 | 7.1e-07 | 8.2e-07 | 24 % of Control | < 1.25 | 15 | 32 | 4.8 | 
